The target in test [1] is T1, 5-HT7 receptor (Homo sapiens, UniProt P34969).
T1 construct: expressed in transfected cells
Briefly: Functional antagonist assay: measurement of cAMP formation. The class given is cell-based. The following applies: 5-HT7-expressing AV-12 cells. On the procedure: For cAMP functional assays, the 5-HT7-expressing cells from above are grown in 150 cm^2 flasks and processed essentially as follows. The media is aspirated from the flasks and cells are washed with 1 mL PBS. The cells are released from monolayer with enzyme free cell dissociation solution (Specialtymedia CAT#S-004-B, www.Chemicon.com) and resuspended in complete media. A sample of the cells is counted and the remainder is centrifuged as above for 3 min. The resulting cell pellet is resuspended in PBS at a concentration of 1×10^6 cells per mL and used directly in the cAMP assay as described.
The 5-HT7 receptor is functionally coupled to a G-protein as measured by the ability of serotonin and serotonergic drugs to stimulate cAMP production in CHO cells transfected with the 5-HT7 receptor. (Ruat, et al., Proceedings of the National Academy of Sciences (USA), 90:8547-8551, 1993.) Accordingly, functional receptor activity can be measured by measuring adenylate cyclase activity using a commercially available cell-based, homogeneous, time resolved fluorescence assay kit, as for example the kit produced by Cisbio-US, Inc. (Bedford, Mass.). Essentially, and using the protocol and reagents provided by the manufacturer, approximately 20,000 human 5-HT7 receptor-expressing AV-12 cells (as described above) are used with test compound dose concentrations in the range described for the binding assay. […] A cAMP standard curve is also run in every experiment. After the assay plates are read in an Envision™ instrument (Perkin-Elmer, Wellesley Mass.), the data are normalized to the standard curve and converted to percent inhibition for data analysis as described above for the receptor binding assay results. The Kb (nM) is calculated as a measure of the antagonist potency of the compound. Preferred compounds are those having percent inhibition>75%. Still other preferred compounds are those having Kb<50 nM.
Background: Changes in cAMP serve as a functional read-out for many G protein-coupled receptors.

Test [2] has as its target T1, 5-HT7 receptor. Briefly: 5-HT7 receptor affinity: [3H]5-HT radioligand binding assay. The following applies: [3H]5-HT competition, membranes of AV-12 cells. On the procedure:
Membranes for affinity and antagonist activity assays are prepared essentially as follows. AV-12 cells, stably expressing the 5-HT7 receptor, are grown as a monolayer in 5×T-150 flasks in DMEM/F12 (3:1) 5% FBS, 20 mM HEPES, […] geneticin, 50 mg/mL tobramycin. After growing to 90% confluence the media is removed and replaced with Hybritech media (a low calcium version of DMEM/F12 media having 11 mg/L calcium) containing 2% horse serum, […] dextran sulfate, 1 mg/mL nucellin, 1 mg/mL human transferrin (partially iron saturated), 50 mg/mL tobramycin, 20 mM HEPES, […] geneticin, 0.04% pluronic F68. The cells are grown overnight to condition the media. The next morning the conditioned media (−150 mL total) is removed and set aside in a sterile container. The cells are trypsinized and collected in the conditioned media. […]
To prepare membranes, the above pellets are resuspended in ice-cold Tris buffer (20 mM Tris HCl, pH 7.4 at 23° C., 5 mM EDTA) and homogenized with a Wheaton tissue grinder. […] Protein concentrations are determined by the method of Bradford. […]
(§1) [^3H] […] The reactions are incubated at room temperature for 3 hr. and then counted in a Trilux Microbeta™ scintillation counter to detect receptor-bound radioligand. Binding data is analyzed by computer-assisted 4 parameter fit analysis (ID Business Solutions Ltd, Guildford, Surrey, UK). […]

Another test concerns the target T2, 5-HT1A (Homo sapiens, UniProt P08908).
T2 construct: expressed in transfected cells
T2 sequence (P08908 1-422): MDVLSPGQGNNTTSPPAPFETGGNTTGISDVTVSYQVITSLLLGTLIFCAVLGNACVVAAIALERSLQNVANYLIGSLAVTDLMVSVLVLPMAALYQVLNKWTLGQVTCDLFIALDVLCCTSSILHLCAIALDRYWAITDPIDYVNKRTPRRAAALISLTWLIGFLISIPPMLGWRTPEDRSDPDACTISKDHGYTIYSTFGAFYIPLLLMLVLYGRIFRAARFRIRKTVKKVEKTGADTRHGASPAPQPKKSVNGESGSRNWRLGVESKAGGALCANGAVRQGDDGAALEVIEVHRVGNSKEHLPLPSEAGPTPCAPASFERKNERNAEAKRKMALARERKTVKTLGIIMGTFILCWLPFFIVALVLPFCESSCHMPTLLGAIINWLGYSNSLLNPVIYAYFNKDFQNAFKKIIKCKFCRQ
Description: Radioligand binding assay, 5-HT1A subtype. The procedure:
as §1
(§2) Affinity for other serotonin receptor subtypes as well as for alpha 1 & 2 adrenergic receptors can readily be determined by modification of the above described radioligand receptor binding assay using membranes derived from cells stably expressing the desired receptor subtype including the 5-HT1A, 5-HT1B, and 5-HT1D subtypes, as well as the 5-HT2A, 5-HT2B, 5-HT2C, 5-HT4, 5-HT5, and 5-HT6 receptor subtypes. […]

The next test deals with T3, 5-HT1B (Homo sapiens, UniProt P28222).
T3 construct: expressed in transfected cells
T3 sequence (P28222 whole entry, species assumed): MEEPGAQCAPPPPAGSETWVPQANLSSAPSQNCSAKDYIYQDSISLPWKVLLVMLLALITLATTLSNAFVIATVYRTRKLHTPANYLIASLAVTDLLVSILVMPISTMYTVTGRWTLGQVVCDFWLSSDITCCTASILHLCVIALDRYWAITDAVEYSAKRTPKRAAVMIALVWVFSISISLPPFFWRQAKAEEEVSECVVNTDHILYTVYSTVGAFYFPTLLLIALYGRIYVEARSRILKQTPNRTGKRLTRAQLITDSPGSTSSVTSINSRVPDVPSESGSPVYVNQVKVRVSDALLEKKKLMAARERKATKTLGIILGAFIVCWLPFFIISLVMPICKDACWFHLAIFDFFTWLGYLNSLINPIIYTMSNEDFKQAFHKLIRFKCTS
Briefly: Radioligand binding assay, 5-HT1B subtype. The procedure: as §1, §2

The target in the next test is T4, 5-HT1D (Homo sapiens, UniProt P28221).
T4 construct: expressed in transfected cells
T4 sequence (P28221 whole entry, species assumed): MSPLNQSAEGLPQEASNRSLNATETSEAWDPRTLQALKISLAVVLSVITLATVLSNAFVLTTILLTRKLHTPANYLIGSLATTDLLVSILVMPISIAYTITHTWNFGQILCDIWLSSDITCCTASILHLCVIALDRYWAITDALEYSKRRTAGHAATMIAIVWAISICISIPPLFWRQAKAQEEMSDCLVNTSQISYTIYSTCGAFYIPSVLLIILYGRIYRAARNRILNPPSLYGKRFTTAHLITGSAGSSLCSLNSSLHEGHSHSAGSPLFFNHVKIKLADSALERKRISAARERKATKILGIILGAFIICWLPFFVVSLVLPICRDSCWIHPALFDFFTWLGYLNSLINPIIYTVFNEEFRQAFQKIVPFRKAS
Description: Radioligand binding assay, 5-HT1D subtype. On the procedure: as §1, §2

A further test concerns the target T5, 5-HT2A (Homo sapiens, UniProt P28223).
T5 construct: expressed in transfected cells
Briefly: Radioligand binding assay, 5-HT2A subtype. The procedure: as §1, §2

Another test concerns the target T6, 5-HT2B (Homo sapiens, UniProt P41595).
T6 construct: expressed in transfected cells
Description: Radioligand binding assay, 5-HT2B subtype. On the procedure:
as §1, §2

The target in a further test is T7, 5-HT2C (Homo sapiens, UniProt P28335).
T7 construct: expressed in transfected cells
T7 sequence (P28335 33-458): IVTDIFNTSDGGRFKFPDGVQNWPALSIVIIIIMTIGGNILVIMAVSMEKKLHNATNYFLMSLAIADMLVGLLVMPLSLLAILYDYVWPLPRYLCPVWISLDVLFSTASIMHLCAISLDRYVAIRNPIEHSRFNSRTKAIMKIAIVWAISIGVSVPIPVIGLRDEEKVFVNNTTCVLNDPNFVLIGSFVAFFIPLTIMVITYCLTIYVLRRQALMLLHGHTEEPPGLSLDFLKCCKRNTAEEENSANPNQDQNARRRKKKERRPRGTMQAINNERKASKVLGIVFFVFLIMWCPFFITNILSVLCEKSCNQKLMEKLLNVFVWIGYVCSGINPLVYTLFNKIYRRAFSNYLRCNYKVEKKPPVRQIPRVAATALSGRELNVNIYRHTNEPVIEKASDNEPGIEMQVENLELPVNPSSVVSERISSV
Description: Radioligand binding assay, 5-HT2C subtype. The procedure:
as §1, §2

For a further test, the target named is T8, 5-HT4 (Homo sapiens, UniProt Q13639).
T8 construct: expressed in transfected cells
T8 sequence (Q13639 whole entry, species assumed): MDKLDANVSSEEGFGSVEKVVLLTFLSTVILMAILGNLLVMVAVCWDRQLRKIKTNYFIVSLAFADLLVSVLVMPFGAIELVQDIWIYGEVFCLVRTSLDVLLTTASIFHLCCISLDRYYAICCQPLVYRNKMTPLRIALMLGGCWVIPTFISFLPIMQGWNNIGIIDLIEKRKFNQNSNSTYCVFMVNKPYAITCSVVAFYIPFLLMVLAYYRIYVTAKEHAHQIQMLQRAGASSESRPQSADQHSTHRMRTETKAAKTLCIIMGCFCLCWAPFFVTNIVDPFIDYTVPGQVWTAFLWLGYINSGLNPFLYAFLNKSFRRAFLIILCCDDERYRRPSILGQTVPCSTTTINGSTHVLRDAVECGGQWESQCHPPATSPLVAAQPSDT
Description: Radioligand binding assay, 5-HT4 subtype. On the procedure:
as §1, §2

The target in another test is T9, 5-HT5 (Homo sapiens, UniProt P47898).
T9 construct: expressed in transfected cells
T9 sequence (P47898 whole entry, species assumed): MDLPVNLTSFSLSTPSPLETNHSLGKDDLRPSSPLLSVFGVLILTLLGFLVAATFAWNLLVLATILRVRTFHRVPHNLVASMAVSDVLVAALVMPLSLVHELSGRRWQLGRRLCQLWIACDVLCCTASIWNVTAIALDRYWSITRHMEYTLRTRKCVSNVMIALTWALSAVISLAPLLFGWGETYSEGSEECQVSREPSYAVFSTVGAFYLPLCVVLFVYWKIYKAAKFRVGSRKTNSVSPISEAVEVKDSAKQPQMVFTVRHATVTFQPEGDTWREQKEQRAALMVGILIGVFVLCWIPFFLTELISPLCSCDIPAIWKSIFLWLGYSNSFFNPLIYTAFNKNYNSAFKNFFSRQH
Briefly: Radioligand binding assay, 5-HT5 subtype. On the procedure: as §1, §2

The target in another test is T10, 5-HT6 (Homo sapiens, UniProt P50406).
T10 construct: expressed in transfected cells
T10 sequence (P50406 whole entry, species assumed): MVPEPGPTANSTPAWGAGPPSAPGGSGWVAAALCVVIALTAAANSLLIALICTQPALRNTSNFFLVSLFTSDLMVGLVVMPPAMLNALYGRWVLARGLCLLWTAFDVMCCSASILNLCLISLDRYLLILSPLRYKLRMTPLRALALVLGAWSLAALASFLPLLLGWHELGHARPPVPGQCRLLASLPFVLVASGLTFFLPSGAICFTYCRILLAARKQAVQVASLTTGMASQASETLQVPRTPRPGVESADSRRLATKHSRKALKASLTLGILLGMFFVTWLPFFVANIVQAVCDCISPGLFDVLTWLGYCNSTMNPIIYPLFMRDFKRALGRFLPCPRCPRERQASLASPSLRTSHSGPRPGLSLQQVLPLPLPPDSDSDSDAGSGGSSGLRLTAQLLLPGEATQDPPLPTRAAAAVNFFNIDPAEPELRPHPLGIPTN
Description: Radioligand binding assay, 5-HT6 subtype. The procedure: as §1, §2

A further test has as its target alpha 1 adrenergic. Description: Radioligand binding assay, alpha 1 adrenergic. The procedure:
as §1, §2

For a further test, the target named is alpha 2 adrenergic. Description: Radioligand binding assay, alpha 2 adrenergic. On the procedure: as §1, §2

Here are results for two molecules from US8048884B2, “Substituted piperazinyl pyrazines and pyridines as 5-HT7 receptor antagonists” (Eli Lilly and Company, priority 2007, dated 2011).

Each structure is given as a SMILES string. pKi: −log10 of the molar value. “And” between values parts separate entries of the source, which are not always exact repeats. Equal entries are not always repeated. Structures can show the parent of a compound that is named as a salt. Some results are limits rather than exact numbers.

The Kb is the equilibrium dissociation constant of an antagonist, usually derived from a functional assay. In general, pKi refers to the Ki on a negative log10 scale, so that one unit is a factor of ten. A higher pKi goes with a low Ki.

T1 sequence (P34969 whole entry): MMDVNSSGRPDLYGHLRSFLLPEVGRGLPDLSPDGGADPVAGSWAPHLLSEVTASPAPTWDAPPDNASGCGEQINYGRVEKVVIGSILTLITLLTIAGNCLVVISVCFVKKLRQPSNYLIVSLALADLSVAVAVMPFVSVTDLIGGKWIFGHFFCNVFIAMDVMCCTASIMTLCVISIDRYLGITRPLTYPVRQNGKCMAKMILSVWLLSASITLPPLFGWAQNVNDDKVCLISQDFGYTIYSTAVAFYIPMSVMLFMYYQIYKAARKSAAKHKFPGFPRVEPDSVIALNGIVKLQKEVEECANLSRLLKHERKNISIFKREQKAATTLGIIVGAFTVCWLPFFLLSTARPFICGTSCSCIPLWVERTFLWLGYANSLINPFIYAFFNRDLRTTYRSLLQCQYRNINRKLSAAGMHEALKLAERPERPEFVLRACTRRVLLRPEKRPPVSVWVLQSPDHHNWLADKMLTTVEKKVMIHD
T6 sequence (P41595 whole entry, species assumed): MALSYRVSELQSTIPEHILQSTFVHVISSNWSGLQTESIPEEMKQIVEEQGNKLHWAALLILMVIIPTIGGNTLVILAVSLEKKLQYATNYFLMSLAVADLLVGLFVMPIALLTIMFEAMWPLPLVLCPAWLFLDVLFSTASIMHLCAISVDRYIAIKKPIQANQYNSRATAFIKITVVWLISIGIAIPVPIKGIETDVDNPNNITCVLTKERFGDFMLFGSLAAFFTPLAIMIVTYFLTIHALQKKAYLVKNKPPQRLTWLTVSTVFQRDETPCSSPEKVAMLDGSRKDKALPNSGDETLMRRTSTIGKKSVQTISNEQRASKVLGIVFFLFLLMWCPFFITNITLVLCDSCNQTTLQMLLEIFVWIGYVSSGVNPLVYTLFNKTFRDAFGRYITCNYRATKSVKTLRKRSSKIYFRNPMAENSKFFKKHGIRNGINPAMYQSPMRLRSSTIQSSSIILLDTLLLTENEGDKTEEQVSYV
T5 sequence (P28223 whole entry, species assumed): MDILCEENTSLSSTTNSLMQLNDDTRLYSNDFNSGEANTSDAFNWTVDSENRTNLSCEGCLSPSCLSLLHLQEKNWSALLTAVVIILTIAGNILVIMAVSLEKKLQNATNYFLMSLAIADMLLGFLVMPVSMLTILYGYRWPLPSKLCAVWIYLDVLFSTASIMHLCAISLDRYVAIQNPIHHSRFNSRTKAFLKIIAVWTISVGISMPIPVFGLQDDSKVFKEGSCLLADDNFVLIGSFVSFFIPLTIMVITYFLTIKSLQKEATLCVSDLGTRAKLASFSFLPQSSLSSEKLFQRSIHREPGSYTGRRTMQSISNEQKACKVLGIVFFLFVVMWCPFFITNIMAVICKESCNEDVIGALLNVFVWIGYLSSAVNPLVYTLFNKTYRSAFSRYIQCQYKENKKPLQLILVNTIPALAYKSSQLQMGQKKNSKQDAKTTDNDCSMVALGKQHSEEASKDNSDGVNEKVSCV

On to `CN(CCN1CCN(c2nccnc2-c2ccc(F)cc2)CC1)S(=O)(=O)c1ccc(F)cc1.Cl` [Example 4, 4-Fluoro-N-{2-[3′-(4-fluoro-phenyl)-2,3,5,6-tetrahydro-[1,2′]bipyrazinyl-4-yl]-ethyl}-N-methyl-benzenesulfonamide hydrochloride], for which, at 5-HT7 receptor [1], the antagonist character result is on record as “full antagonists” and the inhibition entry is listed as “about 128%”. For the same molecule, the Kb on 5-HT7 receptor [1] (antagonist potency) is ~0.024 µM.

With `CN(CCN1CCN(c2nccnc2-c2ccc(F)cc2)CC1)S(=O)(=O)c1cn(C)cn1` [Example 17, 1-Methyl-1H-imidazole-4-sulfonic acid {2-[3′-(4-fluoro-phenyl)-2,3,5,6-tetrahydro-[1,2′]bipyrazinyl-4-yl]-ethyl}-methyl-amide hydrochloride], the pKi on 5-HT7 receptor [2] was ~7.47 and 7.47; on 5-HT1A it was 5.82; on 5-HT1B, < 5.45; on 5-HT1D it was < 5.63; on 5-HT2A, < 5.13; at 5-HT2B it was < 5.17. Also, the pKi is < 5.08 on 5-HT2C; < 5.20 on 5-HT4; < 5.17 on 5-HT5; < 5.23 on 5-HT6; < 5.75 at alpha 1 adrenergic; < 5.61 on alpha 2 adrenergic.
